The numbers were not newly measured in patent US9915714B2, “MSC-SELMQC method for simultaneous mapping of polyunsaturated fatty acids, lactate and choline in high fat tissues” (University of Pittsburgh—Of the Commonwealth System of …, priority 2007, dated 2018), which cites them from elsewhere.

Structures are written as SMILES.

This series concerns RIF-1 tumors. The following applies: following therapeutic intervention, 300 mg/kg; correlates with increases in tumor perfusion and permeability (Gd-DTPA uptake curves).

Turning to `O=P1(N(CCCl)CCCl)NCCCO1` (stereo not shown) [cyclophosphamide], the “lactate levels in RIF-1 tumors” value is recorded as “decrease”.
